Test [1] concerns the target T1, Bromodomain-containing protein 4 (Homo sapiens, UniProt O60885). The test is described as follows: Inhibition of His-tagged BRD4-BD1 (unknown origin) at 10 nM incubated for 30 mins by Alphascreen assay relative to control.
In test [2] the target is PI3-kinase p110-delta/p85-alpha (Homo sapiens) (UniProt P27986+O00329). The test is described as follows: Inhibition of p110delta/p85alpha (unknown origin) at 100 nM incubated for 2 hrs in presence of ATP by ADP-kinaseGlo reagent based assay relative to control. It counts as protein-complex assay.
For test [3], the target named is PI3-kinase p110-delta/p85-alpha (Homo sapiens, UniProt O00329). The test is described as follows: Inhibition of p110delta/p85alpha (unknown origin) incubated for 2 hrs in presence of ATP by ADP-kinaseGlo reagent based assay. In kind it is protein-complex assay. On the technique in general: Kinase-Glo reads ATP consumption through a luciferase reaction.
PI3-kinase p110-delta/p85-alpha, sequence (P27986 whole entry): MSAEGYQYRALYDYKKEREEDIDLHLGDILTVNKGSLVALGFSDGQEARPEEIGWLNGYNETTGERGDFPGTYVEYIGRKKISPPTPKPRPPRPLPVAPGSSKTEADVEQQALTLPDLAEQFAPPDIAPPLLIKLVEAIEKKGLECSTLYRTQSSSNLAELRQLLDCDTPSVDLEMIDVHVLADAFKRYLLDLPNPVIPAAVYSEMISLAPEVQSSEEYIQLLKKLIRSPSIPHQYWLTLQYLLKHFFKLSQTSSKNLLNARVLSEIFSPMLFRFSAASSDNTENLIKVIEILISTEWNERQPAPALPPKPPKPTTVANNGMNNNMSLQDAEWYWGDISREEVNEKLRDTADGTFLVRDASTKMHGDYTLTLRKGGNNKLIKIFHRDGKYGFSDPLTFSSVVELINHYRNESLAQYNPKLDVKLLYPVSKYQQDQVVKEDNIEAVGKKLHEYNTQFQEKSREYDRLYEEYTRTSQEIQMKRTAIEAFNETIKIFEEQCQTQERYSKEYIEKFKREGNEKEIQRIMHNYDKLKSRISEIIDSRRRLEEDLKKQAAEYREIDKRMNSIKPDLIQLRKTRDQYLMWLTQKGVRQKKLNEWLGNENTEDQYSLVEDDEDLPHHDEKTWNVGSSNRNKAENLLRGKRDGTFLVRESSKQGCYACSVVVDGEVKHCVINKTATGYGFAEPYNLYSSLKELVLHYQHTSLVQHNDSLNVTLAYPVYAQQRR
PI3-kinase p110-delta/p85-alpha, sequence (O00329 whole entry): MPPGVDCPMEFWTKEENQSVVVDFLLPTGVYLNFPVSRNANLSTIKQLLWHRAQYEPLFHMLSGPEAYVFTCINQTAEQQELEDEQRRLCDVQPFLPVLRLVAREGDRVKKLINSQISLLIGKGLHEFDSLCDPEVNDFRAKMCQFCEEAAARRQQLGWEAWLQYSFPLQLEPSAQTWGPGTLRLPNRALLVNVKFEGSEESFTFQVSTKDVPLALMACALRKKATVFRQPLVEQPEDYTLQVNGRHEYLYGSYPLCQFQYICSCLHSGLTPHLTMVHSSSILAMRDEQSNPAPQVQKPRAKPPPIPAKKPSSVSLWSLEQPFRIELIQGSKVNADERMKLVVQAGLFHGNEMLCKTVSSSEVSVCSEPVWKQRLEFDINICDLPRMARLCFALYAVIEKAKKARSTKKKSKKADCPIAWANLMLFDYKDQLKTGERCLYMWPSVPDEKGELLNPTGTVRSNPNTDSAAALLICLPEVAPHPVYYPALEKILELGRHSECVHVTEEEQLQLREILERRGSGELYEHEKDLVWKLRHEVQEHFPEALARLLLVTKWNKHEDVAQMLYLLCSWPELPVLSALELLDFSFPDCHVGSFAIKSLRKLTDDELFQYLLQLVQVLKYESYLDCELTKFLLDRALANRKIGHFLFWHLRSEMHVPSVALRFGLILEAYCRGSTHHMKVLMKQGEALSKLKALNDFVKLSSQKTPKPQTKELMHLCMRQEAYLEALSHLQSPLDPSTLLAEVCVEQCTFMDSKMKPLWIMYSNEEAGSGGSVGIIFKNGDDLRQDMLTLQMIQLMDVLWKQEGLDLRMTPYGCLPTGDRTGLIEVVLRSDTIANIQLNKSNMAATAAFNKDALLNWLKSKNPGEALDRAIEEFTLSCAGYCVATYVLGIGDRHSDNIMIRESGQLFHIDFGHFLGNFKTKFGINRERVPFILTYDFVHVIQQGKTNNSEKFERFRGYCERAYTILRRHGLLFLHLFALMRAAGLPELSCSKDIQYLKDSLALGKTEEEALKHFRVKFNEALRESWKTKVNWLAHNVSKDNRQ
Test [4] has as its target T1, Bromodomain-containing protein 4. The test is described as follows: Inhibition of His-tagged BRD4-BD1 (unknown origin) incubated for 30 mins in presence of ATP by Alphascreen assay. (In Alpha technology, singlet oxygen from a donor bead excites a nearby acceptor bead.)
Test [5] concerns SUD4. The test is described as follows: Antiproliferative against activity human SU-DHL-4 cells assessed as inhibition of cell growth incubated for 72 hrs by Celltiter-luminescence analysis. The note with it: SU-DHL-4, 72 h. It counts as functional, cell-based.
Test [6] concerns SU-DHL-6. The test is described as follows: Antiproliferative against activity human SU-DHL-6 cells assessed as inhibition of cell growth incubated for 72 hrs by Celltiter-luminescence analysis. In kind it is functional, cell-based. The note with it: SU-DHL-6, 72 h.
Test [7] relates to SUD4. The test is described as follows: Antiproliferative against activity human SU-DHL-4 cells assessed as inhibition of cell growth incubated for 72 hrs in presence of 10:1 PI-3065:compound by Celltiter-luminescence analysis. It counts as functional, cell-based. The note with it: SU-DHL-4, 72 h.
The subject of test [8] is SU-DHL-6. The test is described as follows: Antiproliferative against activity human SU-DHL-6 cells assessed as inhibition of cell growth incubated for 72 hrs in presence of 10:1 PI-3065:compound by Celltiter-luminescence analysis. In kind it is functional, cell-based. The note with it: SU-DHL-6, 72 h.

Structures are written as SMILES.

From ChEMBL document CHEMBL6153089, “Design, Synthesis, and Biological Evaluation of Thieno[3,2-d]pyrimidine Derivatives as the First Bifunctional PI3Kδ Isoform Selective/Bromodomain and Extra-Terminal Inhibitors” (J Med Chem, 2025) come the findings set out here.

As to `Cn1cc(-c2nc(N3CCOCC3)c3sc(CN4CCN(C(=O)CO)CC4)cc3n2)c2cc[nH]c2c1=O`, the inhibition in test [1] came to 35.2%; in test [2], 28.8%.

Consider `C[C@H](O)C(=O)N1CCN(Cc2cc3nc(-c4cn(C)c(=O)c5[nH]ccc45)nc(N4CCOCC4)c3s2)CC1`, for which the 50% inhibitory concentration (IC50) in test [3] turned out to be 206 nM; in test [4], 11 nM. The inhibition in test [1] stood at 39.9%; in test [2] it was 33.2%.

Consider `Cn1cc(-c2nc(N3CCOCC3)c3sc(CN4CCN(CC5CC5)CC4)cc3n2)ccc1=O`, for which the inhibition in test [1] was determined as 32.6%; in test [2] it was 25.7%.

As to `Cc1c(-c2nc(N3CCOCC3)c3sc(CN4CCN(CC5CC5)CC4)cc3n2)cn(C)c(=O)c1N`, the inhibition in test [1] was found to be 1.4%; in test [2] it was 6%.

In the case of `C[C@@H](O)C(=O)N1CCN(Cc2cc3nc(-c4cn(C)c(=O)c5[nH]ccc45)nc(N4CCOCC4)c3s2)CC1`, the figures for the inhibition in test [1] and in test [2] were 38.2% and 27.4%, respectively.

In the case of `Cn1ccc(-c2nc(N3CCOCC3)c3sc(CN4CCN(CC5CC5)CC4)cc3n2)cc1=O`, the figures for the inhibition in test [1] and in test [2] were 4.6% and 24.1%, respectively.

Consider `CCS(=O)(=O)Nc1ccc(Oc2ccc(F)cc2F)c(-c2cn(C)c(=O)c3[nH]ccc23)c1` [MIVEBRESIB], for which the IC50 was found to be 41 nM with SUD4 [5]; 23 nM in the test with SU-DHL-6 [6]; 14 nM in the test with SUD4 [7]; 0.73 nM in test [4]; 10 nM in the test with SU-DHL-6 [8].

Turning to `Cn1cc(-c2nc(N3CCOCC3)c3sc(CN4CCN(S(C)(=O)=O)CC4)cc3n2)c2cc[nH]c2c1=O`, the IC50 in the test on SUD4 [5] was found to be 665 nM; in the test with SU-DHL-6 [6], 270 nM; in test [3] it was 96 nM; in test [4], 15 nM. In addition, the inhibition is 32.7% in test [1] and 45.7% in test [2].

Turning to `Cn1cc(-c2nc(N3CCOCC3)c3sc(CN4CCN(C(=O)C(C)(C)O)CC4)cc3n2)c2cc[nH]c2c1=O`, the inhibition in test [1] was 32.6%; in test [2] it was 20.1%.

`Cn1cc(-c2nc(N3CCCCC3)c3sc(CN4CCN(CC5CC5)CC4)cc3n2)c2cc[nH]c2c1=O`: the inhibition in test [1] came out at 35%; in test [2], 0.9%.

Take `Cn1cc(-c2nc(N3CCOCC3)c3sc(CN4CCN(C(=O)CN)CC4)cc3n2)c2cc[nH]c2c1=O`: the inhibition is 28.2% in test [1] and 16% in test [2].

In general, inhibition refers to the percentage by which the read-out fell short of the control. By IC50 is commonly meant the concentration that inhibits the measured activity by half.
